ChEMBL document CHEMBL5678818, “Discovery of potent SOS1 inhibitors that block RAS activation via disruption of the RAS-SOS1 interaction” (Proc Natl Acad Sci U S A, 2019)

Columns and labels:
[1] = target: Activin receptor type-1 (Homo sapiens) (UniProt Q04771); assay: Inhibition of ACVR1 (unknown origin) assessed as residual activity at 1000 nM by KINOMEscan analysis relative to control
[2] = target: T1, Serine/threonine-protein kinase D2 (Homo sapiens) (UniProt Q9BZL6); assay: Inhibition of PRKD2 (unknown origin) assessed as residual activity at 1000 nM by KINOMEscan analysis relative to control
T1 sequence (whole entry): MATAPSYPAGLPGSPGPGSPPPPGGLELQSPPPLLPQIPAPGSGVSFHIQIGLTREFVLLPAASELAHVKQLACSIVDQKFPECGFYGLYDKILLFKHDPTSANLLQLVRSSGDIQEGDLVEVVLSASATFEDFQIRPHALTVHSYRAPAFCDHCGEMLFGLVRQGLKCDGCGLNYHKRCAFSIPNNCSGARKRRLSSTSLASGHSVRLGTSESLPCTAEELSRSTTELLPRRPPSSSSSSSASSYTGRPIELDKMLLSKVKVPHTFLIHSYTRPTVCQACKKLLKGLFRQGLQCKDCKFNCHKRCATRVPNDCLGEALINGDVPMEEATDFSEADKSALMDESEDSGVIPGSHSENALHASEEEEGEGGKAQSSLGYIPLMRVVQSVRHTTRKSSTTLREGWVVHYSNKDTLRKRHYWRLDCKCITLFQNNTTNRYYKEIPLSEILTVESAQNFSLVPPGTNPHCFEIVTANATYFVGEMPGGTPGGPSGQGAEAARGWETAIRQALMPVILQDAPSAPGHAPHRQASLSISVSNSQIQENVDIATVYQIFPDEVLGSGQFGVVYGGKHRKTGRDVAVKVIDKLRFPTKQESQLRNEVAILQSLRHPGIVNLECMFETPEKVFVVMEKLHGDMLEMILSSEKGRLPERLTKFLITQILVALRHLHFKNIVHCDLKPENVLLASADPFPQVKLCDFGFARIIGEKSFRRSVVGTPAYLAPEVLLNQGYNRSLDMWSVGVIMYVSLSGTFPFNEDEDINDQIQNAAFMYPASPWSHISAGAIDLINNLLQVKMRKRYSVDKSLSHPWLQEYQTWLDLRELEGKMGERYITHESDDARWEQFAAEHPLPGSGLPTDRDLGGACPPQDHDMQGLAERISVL

[3] = target: T2, Serine/threonine-protein kinase PLK4 (Homo sapiens) (UniProt O00444); assay: Inhibition of PLK4 (unknown origin) assessed as residual activity at 1000 nM by KINOMEscan analysis relative to control
T2 sequence (whole entry): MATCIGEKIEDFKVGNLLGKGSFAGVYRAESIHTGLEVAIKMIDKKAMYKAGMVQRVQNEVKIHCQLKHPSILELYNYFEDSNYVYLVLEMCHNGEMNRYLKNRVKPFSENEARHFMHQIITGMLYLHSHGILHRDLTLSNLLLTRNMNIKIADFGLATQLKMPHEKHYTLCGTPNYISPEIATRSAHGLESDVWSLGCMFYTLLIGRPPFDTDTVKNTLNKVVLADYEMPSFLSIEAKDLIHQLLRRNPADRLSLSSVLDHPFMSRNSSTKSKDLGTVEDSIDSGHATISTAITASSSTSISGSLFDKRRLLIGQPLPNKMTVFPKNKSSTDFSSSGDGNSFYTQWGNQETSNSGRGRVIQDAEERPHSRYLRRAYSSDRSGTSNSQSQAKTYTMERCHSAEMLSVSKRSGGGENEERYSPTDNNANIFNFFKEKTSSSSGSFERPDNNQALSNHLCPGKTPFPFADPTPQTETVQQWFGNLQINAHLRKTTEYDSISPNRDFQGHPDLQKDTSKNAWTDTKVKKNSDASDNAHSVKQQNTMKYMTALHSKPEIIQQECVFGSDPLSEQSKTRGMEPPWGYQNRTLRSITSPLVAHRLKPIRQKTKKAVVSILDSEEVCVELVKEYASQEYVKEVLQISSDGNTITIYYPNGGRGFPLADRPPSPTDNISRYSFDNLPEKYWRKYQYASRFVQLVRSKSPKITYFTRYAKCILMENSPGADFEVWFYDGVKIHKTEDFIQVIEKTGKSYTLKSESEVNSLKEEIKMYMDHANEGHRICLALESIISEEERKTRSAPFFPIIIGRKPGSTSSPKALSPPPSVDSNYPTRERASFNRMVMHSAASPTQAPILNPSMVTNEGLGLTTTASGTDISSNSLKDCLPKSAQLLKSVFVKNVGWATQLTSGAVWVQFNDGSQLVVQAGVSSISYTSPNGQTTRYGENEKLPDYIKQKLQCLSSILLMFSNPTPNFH

[4] = target: Serine/threonine-protein kinase SBK1 (Homo sapiens) (UniProt Q52WX2); assay: Inhibition of SBK1 (unknown origin) assessed as residual activity at 1000 nM by KINOMEscan analysis relative to control
[5] = system: Mast/stem cell growth factor receptor Kit (Homo sapiens), P10721 [V559D,T670I]; assay: Inhibition of KIT V559D/T670I mutant (unknown origin) assessed as residual activity at 1000 nM by KINOMEscan analysis relative to control
[6] = target: T3, Aurora kinase C (Homo sapiens) (UniProt Q9UQB9); assay: Inhibition of AURKC (unknown origin) assessed as residual activity at 1000 nM by KINOMEscan analysis relative to control
T3 sequence (whole entry): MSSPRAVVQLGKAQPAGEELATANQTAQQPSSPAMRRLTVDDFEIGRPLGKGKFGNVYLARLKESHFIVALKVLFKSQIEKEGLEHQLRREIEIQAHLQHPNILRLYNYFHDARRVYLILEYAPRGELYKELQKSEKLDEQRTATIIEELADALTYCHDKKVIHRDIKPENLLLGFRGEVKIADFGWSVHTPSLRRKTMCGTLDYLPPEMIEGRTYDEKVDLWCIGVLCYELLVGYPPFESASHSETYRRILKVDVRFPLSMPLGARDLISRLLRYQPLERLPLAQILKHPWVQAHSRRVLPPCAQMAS

[7] = target: Ribosomal protein S6 kinase alpha-3 (Homo sapiens) (UniProt P51812); assay: Inhibition of N-terminal RSK2 kinetic domain 1 (unknown origin) assessed as residual activity at 1000 nM by KINOMEscan analysis relative to control
[8] = target: Serine/threonine-protein kinase mTOR (Homo sapiens) (UniProt P42345); assay: Inhibition of MTOR (unknown origin) assessed as residual activity at 1000 nM by KINOMEscan analysis relative to control
[9] = system: Epidermal growth factor receptor (Homo sapiens), P00533 [L861Q]; assay: Inhibition of EGFR L861Q mutant (unknown origin) assessed as residual activity at 1000 nM by KINOMEscan analysis relative to control

Activin receptor type-1 (Homo sapiens), sequence (Q04771 whole entry, looked up): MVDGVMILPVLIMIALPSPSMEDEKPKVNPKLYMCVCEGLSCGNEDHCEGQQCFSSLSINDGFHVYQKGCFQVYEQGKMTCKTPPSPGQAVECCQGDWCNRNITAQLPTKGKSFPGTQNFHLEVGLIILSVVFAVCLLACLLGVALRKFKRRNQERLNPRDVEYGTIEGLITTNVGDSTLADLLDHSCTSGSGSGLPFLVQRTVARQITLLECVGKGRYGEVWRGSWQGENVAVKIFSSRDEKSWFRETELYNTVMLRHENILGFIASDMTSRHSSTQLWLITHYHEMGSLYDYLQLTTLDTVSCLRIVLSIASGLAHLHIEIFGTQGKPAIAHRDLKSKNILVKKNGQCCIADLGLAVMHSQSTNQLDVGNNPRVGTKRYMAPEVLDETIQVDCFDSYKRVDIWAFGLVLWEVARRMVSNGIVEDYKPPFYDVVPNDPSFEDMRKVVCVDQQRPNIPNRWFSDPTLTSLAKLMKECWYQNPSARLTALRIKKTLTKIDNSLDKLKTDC
Mast/stem cell growth factor receptor Kit (Homo sapiens), P10721 [V559D,T670I], sequence (P10721 whole entry V559D/T670I): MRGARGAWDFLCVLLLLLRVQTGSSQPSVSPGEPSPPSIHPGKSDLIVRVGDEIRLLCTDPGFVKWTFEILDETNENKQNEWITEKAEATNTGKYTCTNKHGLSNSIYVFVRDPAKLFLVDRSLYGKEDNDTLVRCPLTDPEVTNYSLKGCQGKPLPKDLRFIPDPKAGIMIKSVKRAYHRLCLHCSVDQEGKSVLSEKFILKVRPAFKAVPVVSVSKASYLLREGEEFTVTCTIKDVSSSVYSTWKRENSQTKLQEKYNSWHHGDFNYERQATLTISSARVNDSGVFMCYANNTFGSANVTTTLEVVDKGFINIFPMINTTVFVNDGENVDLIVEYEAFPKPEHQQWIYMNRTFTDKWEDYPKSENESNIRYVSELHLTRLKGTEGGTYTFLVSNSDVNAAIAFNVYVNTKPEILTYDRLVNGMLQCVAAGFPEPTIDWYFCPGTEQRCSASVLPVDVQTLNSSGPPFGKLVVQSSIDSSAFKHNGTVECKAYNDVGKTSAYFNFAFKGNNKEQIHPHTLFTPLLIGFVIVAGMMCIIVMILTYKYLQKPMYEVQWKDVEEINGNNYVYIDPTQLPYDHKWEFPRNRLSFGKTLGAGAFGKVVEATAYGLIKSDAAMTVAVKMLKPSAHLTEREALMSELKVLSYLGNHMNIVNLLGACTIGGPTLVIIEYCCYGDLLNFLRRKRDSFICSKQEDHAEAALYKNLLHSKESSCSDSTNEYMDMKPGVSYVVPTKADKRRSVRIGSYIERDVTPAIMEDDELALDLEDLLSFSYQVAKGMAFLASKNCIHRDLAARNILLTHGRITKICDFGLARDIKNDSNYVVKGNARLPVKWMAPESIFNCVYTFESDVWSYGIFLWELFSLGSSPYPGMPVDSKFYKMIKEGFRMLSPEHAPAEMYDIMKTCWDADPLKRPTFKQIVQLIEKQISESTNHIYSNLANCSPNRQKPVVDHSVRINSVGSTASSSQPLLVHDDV
Serine/threonine-protein kinase SBK1 (Homo sapiens), sequence (Q52WX2 whole entry): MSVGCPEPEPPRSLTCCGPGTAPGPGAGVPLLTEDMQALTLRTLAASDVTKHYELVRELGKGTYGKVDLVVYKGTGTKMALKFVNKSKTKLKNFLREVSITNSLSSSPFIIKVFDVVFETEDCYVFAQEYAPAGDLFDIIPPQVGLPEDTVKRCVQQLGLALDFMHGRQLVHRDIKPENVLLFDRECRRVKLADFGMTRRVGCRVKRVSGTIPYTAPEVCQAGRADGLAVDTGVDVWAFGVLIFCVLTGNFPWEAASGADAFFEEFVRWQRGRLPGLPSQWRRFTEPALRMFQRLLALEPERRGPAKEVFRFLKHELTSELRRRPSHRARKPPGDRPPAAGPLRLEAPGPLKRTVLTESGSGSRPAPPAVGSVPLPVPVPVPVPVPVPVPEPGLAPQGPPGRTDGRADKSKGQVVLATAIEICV
Ribosomal protein S6 kinase alpha-3 (Homo sapiens), sequence (P51812 whole entry, the tested form may be a part): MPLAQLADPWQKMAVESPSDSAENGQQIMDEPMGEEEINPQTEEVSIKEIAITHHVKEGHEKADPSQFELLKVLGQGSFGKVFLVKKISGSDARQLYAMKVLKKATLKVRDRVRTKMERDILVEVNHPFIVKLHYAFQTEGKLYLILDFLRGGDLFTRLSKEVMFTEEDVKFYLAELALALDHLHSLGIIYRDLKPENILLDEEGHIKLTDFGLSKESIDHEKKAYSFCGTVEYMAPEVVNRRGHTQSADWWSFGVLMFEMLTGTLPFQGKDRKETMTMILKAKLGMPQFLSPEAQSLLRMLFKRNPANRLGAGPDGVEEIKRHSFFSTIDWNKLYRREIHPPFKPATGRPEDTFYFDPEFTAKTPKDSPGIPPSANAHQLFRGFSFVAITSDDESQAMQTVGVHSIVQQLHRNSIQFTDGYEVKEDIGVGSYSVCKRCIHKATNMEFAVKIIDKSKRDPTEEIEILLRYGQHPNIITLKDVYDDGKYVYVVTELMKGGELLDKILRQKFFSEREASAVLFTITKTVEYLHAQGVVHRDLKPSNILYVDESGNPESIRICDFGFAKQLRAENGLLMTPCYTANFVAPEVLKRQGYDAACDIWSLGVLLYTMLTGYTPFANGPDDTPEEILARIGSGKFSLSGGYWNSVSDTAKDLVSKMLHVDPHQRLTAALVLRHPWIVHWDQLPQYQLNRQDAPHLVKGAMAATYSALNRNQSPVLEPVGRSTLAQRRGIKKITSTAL

Row | Compound | Activity [1] [%] | Activity [2] [%] | Activity [3] [%] | Activity [4] [%] | Activity [5] [%] | Activity [6] [%] | Activity [7] [%] | Activity [8] [%] | Activity [9] [%]
1 | COc1cc2nc(C)nc(N[C@H](C)c3cccc(-c4cn[nH]c4)c3)c2cc1OC | 100 | 100 | 100 | 85 | 92 | 74 | 60 | 62 | 86
2 | COc1cc2ncnc(N[C@H](C)c3cccc4ccccc34)c2cc1OC | 100 | 90 | 96 | 86 | 73 | 100 | 95 | 95 | 1.1
